Patent US11059795B2, “Androgen receptor modulators and methods for their use” (ESSA Pharma, Inc., priority 2018, dated 2021)
Structures can show the parent of a compound that is named as a salt.

Legend:
[1] = molecular target: T1, androgen receptor (AR) (Homo sapiens, UniProt P10275, T878A); test: Androgen-induced PSA (6.1 kb)-luciferase reporter assay in LNCaP cells; format: cell-based; details: LNCaP cells transfected with PSA (6.1 kb)-luciferase reporter, R1881 1 nM, 24 h; read-out: PSA-Luc IC50 Range
T1 construct: LNCaP cells were transiently transfected with the PSA (6.1 kb)-luciferase reporter for 24 h; endogenous in cells; host or cells: LNCaP
T1 sequence (P10275 1-920 T878A): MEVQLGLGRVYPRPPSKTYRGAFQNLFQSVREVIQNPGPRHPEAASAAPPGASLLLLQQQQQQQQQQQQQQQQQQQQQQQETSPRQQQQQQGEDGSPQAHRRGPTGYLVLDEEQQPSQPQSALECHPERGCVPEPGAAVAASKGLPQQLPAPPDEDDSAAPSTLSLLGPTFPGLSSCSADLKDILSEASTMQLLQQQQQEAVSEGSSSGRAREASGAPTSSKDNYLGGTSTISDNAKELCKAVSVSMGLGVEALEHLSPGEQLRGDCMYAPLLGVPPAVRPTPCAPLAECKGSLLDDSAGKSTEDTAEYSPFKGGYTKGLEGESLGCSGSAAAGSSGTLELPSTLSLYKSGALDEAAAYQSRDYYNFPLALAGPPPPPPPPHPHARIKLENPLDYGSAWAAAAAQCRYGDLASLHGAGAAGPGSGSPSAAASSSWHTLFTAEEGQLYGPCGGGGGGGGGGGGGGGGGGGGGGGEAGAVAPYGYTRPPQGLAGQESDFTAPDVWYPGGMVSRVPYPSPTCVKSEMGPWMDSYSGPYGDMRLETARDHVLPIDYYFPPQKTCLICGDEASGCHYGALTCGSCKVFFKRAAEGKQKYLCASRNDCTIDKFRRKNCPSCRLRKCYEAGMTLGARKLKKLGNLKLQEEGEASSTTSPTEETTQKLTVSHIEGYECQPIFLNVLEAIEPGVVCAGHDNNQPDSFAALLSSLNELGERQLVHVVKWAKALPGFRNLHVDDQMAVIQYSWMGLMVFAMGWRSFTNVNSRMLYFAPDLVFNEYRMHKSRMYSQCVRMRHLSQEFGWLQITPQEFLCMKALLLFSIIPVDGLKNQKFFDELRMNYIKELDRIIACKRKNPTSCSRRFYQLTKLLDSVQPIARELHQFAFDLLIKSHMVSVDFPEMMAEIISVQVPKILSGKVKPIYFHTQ
Experimental: The PSA (6.1 kb)-luciferase reporter contains functional AREs (androgen response elements) to which AR binds in response to androgen to induce luciferase activity.
Cells were lysed using Passive Lysis Buffer (Promega) and then collected into V-bottom 96-well tissue culture plates. Lysates were centrifuged at 4° C. for 5 minutes at 3000 rpm. To measure luminescence of LNCaP cell lysates the Firefly Luciferase Assay System (Promega) was employed, according to manufacturer's protocol. Relative luminescence units (RLU) in cell lysates were detected for 10 seconds using Promega GloMax-Multi Detection Luminometer (Promega). Values were normalized to protein content. GraphPad Prism graphing software was used to calculate IC50 values.
Comparisons between treatment and control groups were compared using Two-Way ANOVA with post-hoc Dunnett's and Tukey's tests. Differences were considered statistically significant at P values less than 0.05.

[2] = Microsomal stability assay, mouse liver microsomes; format: in vitro ADME; details: mouse, liver microsomes, pH 7.4, mouse liver microsomes, 1 μM compound, 0.5 mg/mL protein, 37° C.; read-out: MLM +30/− NADPH: Clint (μL/min/mg protein)
Experimental: (§1) Microsomal stability assay is a widely used in vitro model to characterize the metabolic conversion by phase I enzymes, such as cytochrome P450 (CYP) enzymes. Since metabolism is known to be highly variable in different species, microsomal stability assay is commonly run in multiple species. Metabolic stability of testing compound can be evaluated using human, rat, mouse, or other animal liver or intestine microsomes to predict intrinsic clearance.
(§2) The assay was carried out in 96-well microtiter plates at 37° C. Reaction mixtures (25 μL) contained a final concentration of 1 μM test compound, 0.5 mg/mL liver microsomes protein, and 1 mM NADPH and/or 1 mM UDPGA (with alamethicin) in 100 mM potassium phosphate, pH 7.4 buffer with 3 mM MgCl2. The incubation was done with N=1, but duplicate incubation at each time point can be prepared if necessary. At each of the time points (for example, 0, 15, 30, and 60 minutes), 150 μL of quench solution (100% acetonitrile with 0.1% formic acid) with internal standard was transferred to each well. Besides the zero minute controls, mixtures containing the same components except the NADPH can also be prepared as the negative control. Verapamil was included as a positive control to verify assay performance. Plates were sealed, vortexed, and centrifuged at 4° C. for 15 minutes at 4000 rpm. The supernatant is transferred to fresh plates for LC/MS/MS analysis.
(§3) Summarized conditions: [Compound]=[…], [LM]=0.5 mg/mL, [NADPH]=1 mM and/or [UDPGA]=1 mM, Buffer=100 mM Potassium Phosphate, pH 7.4 with 3 mM MgCl2, Time=0, 15, 30, and 60 min, and Temperature=37° C.
(§4) All samples were analyzed on LC/MS/MS using an AB Sciex API 4000 instrument, coupled to a Shimadzu LC-20AD LC Pump system. Analytical samples were separated using a Waters Atlantis T3 dC18 reverse phase HPLC column (20 mm×2.1 mm) at a flow rate of 0.5 mL/min. The mobile phase consisted of 0.1% formic acid in water (solvent A) and 0.1% formic acid in 100% acetonitrile (solvent B).
(§5) The extent of metabolism is calculated as the disappearance of the test compound, compared to the 0-min time incubation. Initial rates are calculated for the compound concentration and used to determine half-life (t½) values and subsequently, the intrinsic clearance (Clint). Clint=(0.693)(1/t½ (min))(g of liver/kg of body weight)(mL incubation/mg of microsomal protein)(45 mg of microsomal protein/g of liver weight)

[3] = Microsomal stability assay, human liver microsomes; format: in vitro ADME; details: pH 7.4, 1 μM compound, 0.5 mg/mL protein, 37° C., read-out: HLM +/− NADPH: Clint (μL/min/mg protein)
Experimental: as §1, §2, §3, §4, §5

| Structure (SMILES) | IC50 [1] [nM] | microsomal CLint at 1 μM [2] [µL/min/mg] | microsomal CLint at 1 μM [3] [µL/min/mg] |
| --- | --- | --- | --- |
| CC(C)(c1ccc(OCc2ocnc2S(C)(=O)=O)cc1)c1cc(Cl)c(OCCCCl)c(Cl)c1 [Compound A3, 5-[[4-[1-[3,5-dichloro-4-(3-chloropropoxy)phenyl]-1-methyl-ethyl]phenoxy]methyl]-4-methylsulfonyl-oxazole] | 500 to 2000 | < 12 | < 12 |
| CC(C)(c1cnc(NCc2ocnc2S(C)(=O)=O)nc1)c1cc(Cl)c(OCCCl)c(Cl)c1 [Compound A27] | > 2000 | ≥ 48 | < 12 |
| CC(C)(c1cc(Cl)c(OCCCl)c(Cl)c1)c1ccc(OCc2ocnc2S(C)(=O)=O)c(C#N)c1 [Compound A30] | 500 to 2000 | 12 to 48 | 12 to 48 |
| CC(C)(c1ccc(NCc2ocnc2S(C)(=O)=O)cc1)c1cc(Cl)c(OCCCl)c(Cl)c1 [Compound A32, 4-(2-(3,5-dichloro-4-(2-chloroethoxy)phenyl)propan-2-yl)-N-((4-(methylsulfonyl)oxazol-5-yl)methyl)aniline Hydrochloride] | > 2000 | ≥ 48 | 12 to 48 |
| Cc1nc(S(C)(=O)=O)c(COc2ccc(C(C)(C)c3cc(Cl)c(OCCCl)c(Cl)c3)cc2)o1 [Compound A34] | 500 to 2000 | 12 to 48 | < 12 |
| CC(C)(c1ccc(OCc2nccc(NS(C)(=O)=O)n2)cc1)c1cc(Cl)c(OCCCl)c(Cl)c1 [Compound A42] | 500 to 2000 | < 12 | < 12 |
| CC(C)(c1ccc(OCc2ocnc2C(N)=O)cc1)c1cc(Cl)c(OCCCl)c(Cl)c1 [Compound A45] | 500 to 2000 | < 12 | < 12 |
| CC(C)(c1ccc(NC(=O)c2coc(NS(C)(=O)=O)n2)cc1)c1cc(Cl)c(OCCCl)c(Cl)c1 [Compound A49, N-(4-(2-(3,5-Dichloro-4-(2-chloroethoxy)phenyl)propan-2-yl)phenyl)-2-(methylsulfonamido)oxazole-4-carboxamide] | > 2000 | < 12 | 12 to 48 |
| CC(C)(c1ccc(OCc2cnc(S(C)(=O)=O)o2)cc1)c1cc(Cl)c(OCCCl)c(Cl)c1 [Compound A57] | < 500 | ≥ 48 | 12 to 48 |
| CC(C)(c1ccc(OCc2ocnc2C#N)cc1)c1cc(Cl)c(OCCCl)c(Cl)c1 [Compound A65] | 500 to 2000 | 12 to 48 | 12 to 48 |
| CC(C)(c1ccc(OCc2coc(S(C)(=O)=O)n2)cc1)c1cc(Cl)c(OCCCl)c(Cl)c1 [Compound A68] | < 500 | < 12 | < 12 |
| CC(C)(c1ccc(NC(=O)c2ocnc2S(C)(=O)=O)cc1)c1cc(Cl)c(OCCCl)c(Cl)c1 [Compound A73] | 500 to 2000 | < 12 | < 12 |
| CC(O)(c1ccc(OCc2ocnc2S(C)(=O)=O)cc1)c1cc(Cl)c(OCCCl)c(C#N)c1 (centres unmarked) [Compound A77] | 500 to 2000 | ≥ 48 | 12 to 48 |
| Cn1c(COc2ccc(C(C)(C)c3cc(Cl)c(OCCCl)c(Cl)c3)cc2)cnc1S(C)(=O)=O [Compound A78] | 500 to 2000 | < 12 | < 12 |
| C[C@@](O)(c1ccc(OCc2ocnc2S(C)(=O)=O)cc1)c1cc(Cl)c(OCCCl)c(C#N)c1 [Compound A107] | > 2000 | – | 12 to 48 |
| COc1c(Cl)cc(C(C)(C)c2ccc(OCc3coc(NS(C)(=O)=O)n3)cc2)cc1C#N [Compound A161] | – | < 12 | < 12 |
| CC(C)(c1ccc(OCc2nc(C(N)=O)co2)cc1)c1cc(Cl)c(OCCCl)c(C#N)c1 [Compound A173] | > 2000 | < 12 | < 12 |
| CC(C)(c1ccc(OCc2nc(C#N)co2)cc1)c1cc(Cl)c(OCCCl)c(C#N)c1 [Compound A174] | 500 to 2000 | 12 to 48 | < 12 |
| CC(C)(c1ccc(C(=O)Nc2ccnc(NS(C)(=O)=O)n2)cc1)c1cc(Cl)c(OCCCl)c(Cl)c1 [Compound A189] | 500 to 2000 | < 12 | < 12 |

Further lines, results first:

| IC50 [1] [nM] | microsomal CLint at 1 μM [2] [µL/min/mg] | microsomal CLint at 1 μM [3] [µL/min/mg] | Structure (SMILES) |
| --- | --- | --- | --- |
| 500 to 2000 | ≥ 48 | 12 to 48 | CN1C(=O)N(Cc2ccc(C(C)(C)c3cc(Cl)c(OCCCCl)c(Cl)c3)cc2)C(=O)C1(C)C [Compound B1] |
| < 500 | ≥ 48 | ≥ 48 | CN1C(=O)N(Cc2ccc(C(C)(C)c3cc(Cl)c(OCCCl)c(Cl)c3)cc2)C(=O)C1(C)C [Compound B2, 3-(4-(2-(3,5-Dichloro-4-(2-chloroethoxy)phenyl)propan-2-yl)benzyl)-1,5,5-trimethylimidazolidine-2,4-dione] |
| 500 to 2000 | < 12 | < 12 | CC(C)(c1ccc(CN2C(=O)N(S(C)(=O)=O)C(C)(C)C2=O)cc1)c1cc(Cl)c(OCCCl)c(Cl)c1 [Compound B3, 3-(4-(2-(3,5-Dichloro-4-(2-chloroethoxy)phenyl)propan-2-yl)benzyl)-5,5-dimethyl-1-(methylsulfonyl)imidazolidine-2,4-dione] |
| > 2000 | – | 12 to 48 | CC(C)(c1ccc(N2C(=O)N(N)C(C)(C)C2=O)cc1)c1cc(Cl)c(OCCCl)c(Cl)c1 [Compound B6] |
| > 2000 | < 12 | < 12 | CC(C)(c1ccc(N2C(=O)N(S(C)(=O)=O)C(C)(C)C2=O)cc1)c1cc(Cl)c(OCCCl)c(Cl)c1 [Compound B7] |
| 500 to 2000 | – | ≥ 48 | CN1C(=O)N(Cc2ccc(C(C)(C)c3cc(Cl)c(OCCCl)c(Cl)c3)cc2C#N)C(=O)C1(C)C [Compound B8] |
| < 500 | 12 to 48 | 12 to 48 | Cc1cc(C(C)(C)c2ccc(CN3C(=O)N(S(C)(=O)=O)C(C)(C)C3=O)c(C(N)=O)c2)cc(Cl)c1OCCCl [Compound B9] |
